For five molecules, melting point results are on record in patent US7482365B2, “Piperidylcarboxamide derivatives and their use in the treatment of tachykinin-mediated diseases” (Glaxo Group Limited, priority 2002, dated 2009).

As for `Cc1cc(F)ccc1[C@H]1C[C@H](NCC(N)=O)CCN1C(=O)N(C)Cc1cc(C(F)(F)F)cc(C(F)(F)F)c1.Cl`, the melting point fell in the range of 130 to 131 °C.
`Cc1cc(F)ccc1[C@H]1C[C@H](NCCF)CCN1C(=O)N(C)Cc1cc(C(F)(F)F)cc(C(F)(F)F)c1.Cl` yielded a melting point of 145 to 146 °C.
`Cc1cc(F)ccc1[C@H]1C[C@@H](NCC(N)=O)CCN1C(=O)N(C)Cc1cc(C(F)(F)F)cc(C(F)(F)F)c1.Cl` gave a melting point of 100 to 101 °C.
For the molecule `Cc1cc(F)ccc1[C@H]1C[C@H](N(C)C)CCN1C(=O)N(C)Cc1cc(C(F)(F)F)cc(C(F)(F)F)c1.Cl`, the melting point is 180 to 183 °C.
As for `Cc1cc(F)ccc1[C@H]1C[C@@H](N(C)C)CCN1C(=O)N(C)Cc1cc(C(F)(F)F)cc(C(F)(F)F)c1.Cl`, the melting point lay in the range of 147 to 150 °C.
